The test system of this assay is MDA-MB-468 breast. Briefly: inhibition of tumour cell growth, NCI panel, 48 h.

The values below come from PubChem BioAssay (NCI).

“And” between values parts separate entries of the source, which are not always exact repeats. Equal values may be shown once.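 Where inhibition never reached the appropriate level, the endpoint shown equals the highest concentration tested. Otherwise, values were interpolated linearly from a five-concentration, 48-hour dose response in 96-well plates. GI50 marks 50% less growth. TGI denotes the concentration required for complete inhibition of growth.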

Regarding `Nc1c(C(=O)Nc2cccc([N+](=O)[O-])c2)sc2nc3c(cc12)C(O)CCC3` (stereo not drawn), the GI50 is 2.11 µM and the TGI was above 100 µM.
As to `COC(=O)/C=C/C=C(c1ccccc1)c1ccccc1`, the GI50 was 3.47 µM and the TGI was 18.7 µM.
In the same order, the values of `COC1(C(=O)N[C@@H](C)c2ccc(-n3cc(F)cn3)nc2)CCC(c2nc(C)cc(Nc3cc(C)[nH]n3)n2)CC1` (stereo partly drawn) are 1.98 µM and 6.96 µM.
In the same order, the values of `CNC(=O)c1cncc(/C=C/c2ccccc2C)c1` are above 25 µM and above 25 µM.
In the same order, the values of `ClCCn1c(CCl)nc2ccc(Cl)cc21` are 1.68 µM and 3.42 µM.
For `Cc1[c-]onc1C.Cc1[c-]onc1C.[Ag].[Ag].[NH-]S(=O)(=O)c1ccc(N=Nc2cc(N=Nc3ccc(S([NH-])(=O)=O)cc3)c3c(NC(=O)C(Cl)Cl)cccc3c2OC(=O)C(Cl)Cl)cc1`, the GI50 is 1.92 µM and the TGI turned out to be 8.48 µM.
Regarding `Cc1ccc2c(ccc3c[n+]4c5ccccc5ccc4n32)c1`, the GI50 is 0.541 µM and the TGI worked out at 2.47 µM.
In the case of `O=CNc1c(Cl)cc2c(c1Cl)Cc1cc([N+](=O)[O-])ccc1-2`, the GI50 was 0.317 µM and the TGI was found to be 1.27 µM.
For `COc1ccc2c(c1)O/C(=C\c1cccc(OCC(=O)Nc3nc4c(s3)CCCC4)c1)C2=O`, the GI50 is 1.71 µM and the TGI is 48.4 µM.
The like results for `CCN(CC)c1ccc(C(=C2C=CC(=[N+](CC)Cc3cccc(S(=O)(=O)O)c3)C=C2)c2ccc(N(CC)Cc3cccc(S(=O)(=O)O)c3)cc2)cc1` were, in that order, 2.58 µM and 15.9 µM.
For `CC(C)NC[C@@H](C(=O)N1CCN(c2ncnc3c2[C@H](C)C[C@H]3O)CC1)c1ccc(Cl)cc1`, the GI50 was 0.112 µM and 0.134 µM; the TGI is 0.582 µM and 2.19 µM.
On to `C[C@H](Nc1ncnc2nc[nH]c12)c1cc2cccc(Cl)c2c(=O)n1-c1ccccc1`, for which the GI50 was 1.55 µM and the TGI is 22.9 µM.
`CC1SC(c2c(Cl)cccc2Cl)N(NC(=O)c2[nH]c3ccc(F)cc3c2-c2ccccc2)C1=O` (stereo not drawn): the GI50 was 3.72 µM and the TGI worked out at 29.9 µM.
As for `CNC(=O)n1ccc2cc(Oc3ccnc(NC(=O)c4ccc(C5CCN(CCO)CC5)cc4)c3)c(OCCOC)cc21`, the GI50 was 1.99 µM and the TGI turned out to be 4.22 µM.
With `C[C@@H](C(=O)Nc1ccc(Cl)cc1)C1CCC(c2ccnc3ccc(F)cc23)CC1` (stereo partly drawn), the GI50 was 2.7 µM and the TGI came out at 14.1 µM.
The like results for `CCN(CC)S(=O)(=O)c1ccc(OC)c(Nc2ncc(-c3ccccc3)o2)c1` were, in that order, above 10.4 µM and above 25 µM.
As for `C=CCc1c2c(c(OC)c3ccoc13)C(=O)/C(=C/c1ccccc1OC)O2`, the GI50 is 2.46 µM and the TGI was 7.85 µM.
As to `COc1ccc(C(=O)/C=C/c2ccc(/C=C/c3cc(OC)c(OC)c(OC)c3)cc2)cc1`, the GI50 was 3.39 µM and the TGI was 48.7 µM.
With `Cc1ccc(/C=C2\CN(C(=O)OC(C)(C)C)C/C(=C\c3ccc(C)cc3)C2=O)cc1`, the GI50 was 0.0878 µM and the TGI was above 100 µM.
As to `COc1cc(C2c3cc4c(cc3OC(N3CCCC3)C2C)OCO4)cc(OC)c1OC` (stereo not drawn), the GI50 is 0.416 µM and the TGI came to 54.8 µM.
On to `COC(=O)[C@@H](C)C[C@H](Cc1ccccc1)NC(=O)c1nc([C@@H](C[C@H](C(C)C)N(C)C(=O)[C@@H](NC(=O)[C@H]2CCCCN2C)C(C)C)OC(C)=O)sc1C`, for which the GI50 is below 0.00167 µM and the TGI was above 16.7 µM.
In the same order, the values of `O=C1OC(=O)C(c2c[nH]c3ccccc23)=C1c1c[nH]c2ccccc12` are above 19.3 µM and above 25 µM.
The like results for `CC(C)(C)C[C@H]1NC(C(=O)NCC[C@H](O)CO)[C@H](c2cccc(Cl)c2)[C@@]12C(=O)Nc1cc(Cl)c(F)cc12` (stereo partly drawn) were, in that order, 12.4 µM and 27.3 µM.
For the molecule `Cc1c(C(=O)/C=C/c2csc3ccccc23)[n+](=O)c2ccccc2n1[O-]`, the GI50 is 1.71 µM and the TGI was found to be 3.6 µM.
